Key:
TRKB = target: T1, TRKB (Homo sapiens, UniProt Q16620); assay: Z′-LYTE kinase activity assay, TRKB; format: biochemical; conditions: ATP 25 uM
T1 construct: purchased life technologies PV3616
In short: (§1)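 IC50 values were fitted to inhibition calculated from the emission-ratio-based phosphorylation ratio relative to negative control, across a compound concentration gradient.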

BaF3-CD74-NTRK1 = target: T2, BaF3-CD74-NTRK1 (Homo sapiens, UniProt P04629); assay: Cell proliferation inhibition (CCK-8), BaF3-CD74-NTRK1 stable strain; format: cell-based, mouse; conditions: BaF3-CD74-NTRK1, 72 hours
T2 construct: fused on or other part: P04233 (HLA class II histocompatibility antigen gamma chain)
In short: (§2)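 Ba/F3 cells stably electroporated with ETV6-NTRK3, CD74-NTRK1 or ETV6-NTRK2, selected with G418 and grown without IL3, then cloned by limiting dilution.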

[1] = Rat hepatocyte stability experiment; format: in vitro ADME
Procedure: In William medium E, dilute the 37° C. rat hepatocyte suspension to an appropriate density (viable cell density=2×10^6 cells/mL). In addition, a 2× quantification solution (the concentration of the test compound was 2 μM) was additionally prepared in William's medium E. The hepatocyte solution and 2× quantification solution were preheated in a water bath of 37° C. 40 µL of the preheated hepatocyte solution (2×10^6 cells/mL) was added into the designated wells for 5, 15, 30, 60, and 120 min, and add 40 µL of the preheated 2× quantification solution and start timing. An assay plate was placed in a 37° C., 5% CO2 incubator with shaking at 110 rpm. At 5, 15, 30, 60, and 120 minutes, 240 μL of ACN containing IS was added to each well. The plate was then sealed and stored in a −35° C. freezer. After collecting at all time points, the plate was shaken for 2 minutes and then centrifuging was performed for 15 minutes at 6000 rmp. 100 μL of supernatant from each well was transferred to a 96-well sample plate containing 100 μL of water for LC/MS analysis, determination of compound concentrations, calculation of rate constants and half-lives.

Ba/F3-TRK stable strains = assay: Cell proliferation of Ba/F3-TRK stable strains, summary statements; format: cell-based, mouse; conditions: summary statement
Procedure: The brief steps of stable strain construction are as follows: construct a pCDNA3.1(+) plasmid vector carrying genes such as CD74-NTRK1, ETV6-NTRK2 and ETV6-NTRK3; the plasmid was electroporated into Ba/F3 cells using the Amaxa® Cell Line Nucleofector® Kit V; 48 hours after electroporated, G418 with a final concentration of 1000 μg/ml was added for screening for two weeks, and then IL3 was removed, and continued screening to obtain polyclonal stable strains; then single clones were selected by a limiting dilution method. The stable strains were then identified using positive drugs, WB and gene sequencing; and the monoclonal clones that were identified as completely correct may be used for the study of cell proliferation inhibitory activity of inhibitors.
Cell proliferation inhibition activity study: the cells in the logarithmic growth phase were seeded into 96-well plates at 8000-12000 cells/well, and inhibitors at different concentrations (0-10 μM) were added the next day, and incubation was continued for 72 hours; then 10 μL of CCK-8 reagent was added to each well, and the incubation was continued for 1-3 hours; and then use a super microplate reader to measure their absorbance values at 450 nm and 650 nm. The half-inhibition concentration (IC50) was calculated using GraphPad Prism 8.0.0.

TRKA = target: T3, TRKA (Homo sapiens, UniProt P04629); assay: Z′-LYTE kinase activity assay, TRKA; format: biochemical; conditions: ATP 400 uM
T3 construct: purchased life technologies PV3144
In short: as §1

BaF3-ETV6-NTRK3 = target: T4, BaF3-ETV6-NTRK3 (Homo sapiens, UniProt Q16288); assay: Cell proliferation inhibition (CCK-8), BaF3-ETV6-NTRK3 stable strain; format: cell-based, mouse; conditions: BaF3-ETV6-NTRK3, 72 hours
T4 construct: fused on or other part: P41212 (Transcription factor ETV6)
In short: as §2

TRKs (TRK1, TRK2, TRK3) = assay: Kinase activity on TRKs, summary statements; format: biochemical; conditions: summary statement
Text: Kinase activity assay: Z′-LYTE™ technology (detection by fluorescence, enzyme-conjugated format, based on the difference in sensitivity of phosphorylated and non-phosphorylated peptides to proteolytic cleavage) was applied, and using the principle of fluorescence resonance energy transfer (FRET), a Z′-LYTE™ FRET peptide substrate (Z′-LYTE™ Tyrosine 1 Peptide Substrate, Invitrogen, PV3190), and a secondary reaction were used to detect the inhibitory activity of the compounds on TRKs (TRK1, TRK2, TRK3) (life technologies, PV3144, PV3616, PV3617).
Enzymatic reaction: In a 384-well plate, 5 μL of an enzyme-substrate system (50 mM HEPES pH 7.5, 0.01% BRIJ-35, 10 mM MgCl2, 1 mM EGTA, 2 μM Tyr 01 Peptide Substrate) was added and 5 nL of compound (concentration gradient) was transferred thereto by using the echo520 ultramicro liquid pipetting system. After shaking for 10-20 min at room temperature, 200 nL, 12.5 nL and 25 nL of ATP (final concentrations are 400 uM, 25 uM and 50 uM, respectively) were transferred by using the echo520 ultramicro liquid pipetting system. After shaking and mixing, centrifuging was performed. A reaction was carried out at 30° C. in the dark for 1.5 hours.
Assay reaction: 2.54 of Development Solution (1:128 dilution) was added in each well, and incubated at 37° C. in the dark for 1 hour, and then 5 μL of Stop Reagent was added.
Plate reading: fluorescence signals were detected using a Perkin Elmer EnVision Multimode Plate Reader (excitation at 400 nm, and emission at 460 nm, and 535 nm).
Calculation: the inhibition rate of each well was calculated by the fully active well and control signal wells. The data were analyzed as follows:
Phosphorylation ratio=1−{(emission ratio×F100%−C100%)/[C0%−C100%+emission ratio×(F100%−F0%)]}×100;
Inhibition rate=100×(1−compound phosphorylation ratio/negative control phosphorylation ratio).
IC50 values were calculated by using GraphPad Prism 5.0 software.

[2] = Pharmacokinetic evaluation in SD rats; format: in vivo
Procedure: Pharmacokinetics and oral bioavailability were tested in SD rats. According to the solubility of the drug, a single dose was administered orally, intravenously or by intraperitoneal injection. Animal blood samples were collected at different time points (0, 0.5, 1, 2, 4, 6, 8, and 24 hours), anticoagulated with heparin, and centrifuged to take the supernatant. Blood samples were analyzed by HPLC-MS. DAS2.1 was used for data analysis to detect half-life (T1/2), maximum blood concentration (Cmax), time to peak (Tmax), area under the drug-time curve (AUC), and bioavailability (BA) and other pharmacokinetic data.

TRKC = target: T5, TRKC (Homo sapiens, UniProt Q16288); assay: Z′-LYTE kinase activity assay, TRKC; format: biochemical; conditions: ATP 50 uM
T5 construct: purchased life technologies PV3617
In short: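 Recombinant TRK kinase tested in a Z′-LYTE FRET assay with 2 μM Tyr 01 peptide substrate in 50 mM HEPES pH 7.5, 10 mM MgCl2, 1 mM EGTA, 0.01% BRIJ-35. IC50 obtained by curve fitting.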

BaF3-ETV6-NTRK2 = target: T6, BaF3-ETV6-NTRK2 (Homo sapiens, UniProt Q16620); assay: Cell proliferation inhibition (CCK-8), BaF3-ETV6-NTRK2 stable strain; format: cell-based, mouse; conditions: BaF3-ETV6-NTRK2, 72 hours
T6 construct: fused on or other part: P41212 (Transcription factor ETV6)
In short: as §2

T3 sequence (P04629 440-796 limits assumed): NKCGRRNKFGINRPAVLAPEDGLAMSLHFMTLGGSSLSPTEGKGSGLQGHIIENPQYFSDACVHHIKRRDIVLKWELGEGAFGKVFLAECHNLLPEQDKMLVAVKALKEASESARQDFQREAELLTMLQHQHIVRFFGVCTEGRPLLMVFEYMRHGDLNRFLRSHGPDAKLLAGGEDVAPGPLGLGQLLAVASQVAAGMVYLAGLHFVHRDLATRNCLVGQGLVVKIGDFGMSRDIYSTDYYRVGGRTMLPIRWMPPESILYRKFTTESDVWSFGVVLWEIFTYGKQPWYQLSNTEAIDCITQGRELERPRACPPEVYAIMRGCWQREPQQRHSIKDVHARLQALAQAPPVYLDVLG
T5 sequence (Q16288 32-839): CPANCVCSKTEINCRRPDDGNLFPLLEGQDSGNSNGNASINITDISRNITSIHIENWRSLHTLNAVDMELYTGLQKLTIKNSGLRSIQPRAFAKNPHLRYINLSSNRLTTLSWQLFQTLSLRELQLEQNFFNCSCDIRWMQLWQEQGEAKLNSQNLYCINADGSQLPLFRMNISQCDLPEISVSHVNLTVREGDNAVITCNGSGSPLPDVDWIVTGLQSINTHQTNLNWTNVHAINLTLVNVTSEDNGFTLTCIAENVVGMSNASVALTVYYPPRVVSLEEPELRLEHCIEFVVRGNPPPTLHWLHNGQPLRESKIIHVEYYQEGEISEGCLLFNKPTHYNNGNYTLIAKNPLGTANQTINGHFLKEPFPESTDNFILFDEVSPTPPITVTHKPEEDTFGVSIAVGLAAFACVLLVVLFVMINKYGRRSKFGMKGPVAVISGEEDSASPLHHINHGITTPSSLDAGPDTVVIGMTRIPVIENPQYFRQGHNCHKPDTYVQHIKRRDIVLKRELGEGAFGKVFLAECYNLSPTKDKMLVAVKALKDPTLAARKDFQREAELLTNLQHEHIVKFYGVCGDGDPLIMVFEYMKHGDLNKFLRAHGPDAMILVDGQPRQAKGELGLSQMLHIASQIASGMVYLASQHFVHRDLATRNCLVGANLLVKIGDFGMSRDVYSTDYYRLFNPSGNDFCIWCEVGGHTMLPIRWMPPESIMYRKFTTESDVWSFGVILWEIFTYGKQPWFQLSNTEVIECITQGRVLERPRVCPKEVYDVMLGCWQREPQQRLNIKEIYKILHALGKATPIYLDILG
T2 sequence (P04629 510-796 limits assumed): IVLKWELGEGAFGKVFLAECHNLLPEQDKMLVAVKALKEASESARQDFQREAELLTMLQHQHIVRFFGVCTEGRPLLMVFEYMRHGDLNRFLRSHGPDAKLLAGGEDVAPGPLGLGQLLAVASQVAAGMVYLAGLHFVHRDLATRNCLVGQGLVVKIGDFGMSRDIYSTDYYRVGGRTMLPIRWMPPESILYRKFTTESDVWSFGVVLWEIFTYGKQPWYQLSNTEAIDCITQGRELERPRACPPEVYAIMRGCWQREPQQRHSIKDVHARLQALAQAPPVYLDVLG
T4 sequence (Q16288 whole entry, the tested form may be a part): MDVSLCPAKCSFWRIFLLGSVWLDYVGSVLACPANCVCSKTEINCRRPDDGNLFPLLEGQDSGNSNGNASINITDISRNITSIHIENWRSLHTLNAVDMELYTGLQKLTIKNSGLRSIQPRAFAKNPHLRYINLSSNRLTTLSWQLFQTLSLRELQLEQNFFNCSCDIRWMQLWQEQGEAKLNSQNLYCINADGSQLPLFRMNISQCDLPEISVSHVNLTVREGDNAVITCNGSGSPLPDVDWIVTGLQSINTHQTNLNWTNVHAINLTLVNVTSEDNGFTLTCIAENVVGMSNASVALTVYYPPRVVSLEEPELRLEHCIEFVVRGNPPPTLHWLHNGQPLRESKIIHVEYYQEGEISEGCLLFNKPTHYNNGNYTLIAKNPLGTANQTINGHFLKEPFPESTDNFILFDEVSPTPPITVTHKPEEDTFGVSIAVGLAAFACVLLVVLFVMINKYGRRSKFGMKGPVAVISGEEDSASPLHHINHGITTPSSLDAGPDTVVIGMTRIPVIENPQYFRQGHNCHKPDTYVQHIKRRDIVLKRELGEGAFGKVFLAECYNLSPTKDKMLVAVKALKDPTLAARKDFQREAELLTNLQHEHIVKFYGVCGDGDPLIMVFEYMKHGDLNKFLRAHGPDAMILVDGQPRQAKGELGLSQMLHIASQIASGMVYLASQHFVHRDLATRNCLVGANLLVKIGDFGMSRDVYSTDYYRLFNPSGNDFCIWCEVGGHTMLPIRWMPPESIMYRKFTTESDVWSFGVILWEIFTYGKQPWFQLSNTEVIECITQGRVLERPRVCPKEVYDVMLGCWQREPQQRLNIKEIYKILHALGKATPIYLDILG
T1 sequence (Q16620 32-822): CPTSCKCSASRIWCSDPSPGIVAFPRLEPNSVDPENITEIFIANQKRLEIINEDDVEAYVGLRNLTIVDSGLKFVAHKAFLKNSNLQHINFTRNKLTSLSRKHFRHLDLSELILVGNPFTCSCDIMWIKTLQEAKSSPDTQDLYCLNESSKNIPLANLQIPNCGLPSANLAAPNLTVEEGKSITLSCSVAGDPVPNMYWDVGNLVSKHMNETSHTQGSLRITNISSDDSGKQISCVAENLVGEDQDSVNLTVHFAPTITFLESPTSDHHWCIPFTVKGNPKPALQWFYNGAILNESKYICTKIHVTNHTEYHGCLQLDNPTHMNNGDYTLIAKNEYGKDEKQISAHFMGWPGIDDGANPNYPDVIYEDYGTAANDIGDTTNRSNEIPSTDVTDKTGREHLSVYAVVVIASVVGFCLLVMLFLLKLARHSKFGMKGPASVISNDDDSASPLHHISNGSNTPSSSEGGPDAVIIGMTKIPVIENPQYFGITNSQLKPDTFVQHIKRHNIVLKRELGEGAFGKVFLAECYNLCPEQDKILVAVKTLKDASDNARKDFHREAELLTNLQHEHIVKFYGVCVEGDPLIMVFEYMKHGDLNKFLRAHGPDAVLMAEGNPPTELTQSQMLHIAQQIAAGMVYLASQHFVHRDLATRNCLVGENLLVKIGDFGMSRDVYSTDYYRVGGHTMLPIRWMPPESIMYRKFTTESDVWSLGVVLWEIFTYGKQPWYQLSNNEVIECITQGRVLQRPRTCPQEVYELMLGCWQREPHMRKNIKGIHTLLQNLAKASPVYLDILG
T6 sequence (Q16620 538-822 limits assumed): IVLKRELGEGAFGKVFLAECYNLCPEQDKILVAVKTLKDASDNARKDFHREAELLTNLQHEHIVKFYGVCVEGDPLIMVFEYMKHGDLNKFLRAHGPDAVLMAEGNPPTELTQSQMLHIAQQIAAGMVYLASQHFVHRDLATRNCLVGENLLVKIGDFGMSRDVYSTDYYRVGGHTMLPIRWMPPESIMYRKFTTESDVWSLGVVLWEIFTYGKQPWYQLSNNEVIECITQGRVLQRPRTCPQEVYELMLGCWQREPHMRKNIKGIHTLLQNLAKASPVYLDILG

## O=S(=O)(Nc1ccc2[nH]nc(/C=C/c3ccccn3)c2c1)c1cc(F)cc(F)c1 [DYX-165, (E)-3,5-difluoro-N-(3-(2-(pyridin-2-yl)vinyl)-1H-indazol-5-yl)benzenesulfonamide]
TRKB
  IC50: 3.2 nM
BaF3-CD74-NTRK1
  IC50: 126 nM
[1]; rat hepatocytes, 0 min, average value
  Residual percentage (%) 0 min: 100.00%
[1]; rat hepatocytes, 5 min, average value
  Residual percentage (%) 5 min: 92.73%
[1]; rat hepatocytes, 15 min, average value
  Residual percentage (%) 15 min: 84.16%
[1]; rat hepatocytes, 30 min, average value
  Residual percentage (%) 30 min: 73.15%
[1]; rat hepatocytes, 60 min, average value
  Residual percentage (%) 60 min: 59.81%
[1]; rat hepatocytes, 120 min, average value
  Residual percentage (%) 120 min: 58.02%
[1]; rat hepatocytes, comparison with DYX244-1 and DYX318
  metabolic stability (in words): better metabolic stability
[1]; rat, rat hepatocytes (suspension)
  half-life at 1 μM: 2.57 h
Ba/F3-TRK stable strains
  inhibitory activity against cell proliferation of the Ba/F3-TRK stable strains (in words): strong inhibitory activity
TRKA
  IC50: 1.3 nM
BaF3-ETV6-NTRK3
  IC50: 43.7 nM
TRKs (TRK1, TRK2, TRK3)
  inhibitory activity against TRKs kinase (in words): strong inhibitory activity
[2]; Sprague-Dawley, rat, plasma, oral administration, 25 mg/kg, read-out: Half-life (converted)
  Half-life: 1.54 h
[2]; oral administration, 25 mg/kg
  Area under the drug-time curve (0-t): 1035.70 µM·h
  Area under the drug-time curve (0-∞): 1035.78 µM·h
  Maximum blood concentration: 91.56 µM
  Time to Peak: 4.00 h
[2]; oral, comparison with DYX244-1
  oral absorption properties (in words): better oral absorption properties
TRKC
  IC50: 2.4 nM
BaF3-ETV6-NTRK2
  IC50: 48.9 nM

Source: patent US20220281821A1, “INDAZOLE COMPOUNDS AND THEIR PHARMACEUTICAL COMPOSITIONS” (Jinan University, priority 2019, published 2022)
